Test results taken from ChEMBL document CHEMBL4507268 (2021).

How the values were obtained:
[1] = system: Proto-oncogene tyrosine-protein kinase receptor Ret (Homo sapiens), P07949 [V804M]; conditions: Compound concentration 1000.0 nM
[2] = target: Cyclin-dependent kinase 8 (Homo sapiens) (UniProt P49336); conditions: Compound concentration 1000.0 nM
[3] = target: Phosphatidylinositol 4-phosphate 5-kinase type-1 gamma (Homo sapiens) (UniProt O60331); conditions: Compound concentration 1000.0 nM
Phosphatidylinositol 4-phosphate 5-kinase type-1 gamma (Homo sapiens), sequence (O60331 whole entry): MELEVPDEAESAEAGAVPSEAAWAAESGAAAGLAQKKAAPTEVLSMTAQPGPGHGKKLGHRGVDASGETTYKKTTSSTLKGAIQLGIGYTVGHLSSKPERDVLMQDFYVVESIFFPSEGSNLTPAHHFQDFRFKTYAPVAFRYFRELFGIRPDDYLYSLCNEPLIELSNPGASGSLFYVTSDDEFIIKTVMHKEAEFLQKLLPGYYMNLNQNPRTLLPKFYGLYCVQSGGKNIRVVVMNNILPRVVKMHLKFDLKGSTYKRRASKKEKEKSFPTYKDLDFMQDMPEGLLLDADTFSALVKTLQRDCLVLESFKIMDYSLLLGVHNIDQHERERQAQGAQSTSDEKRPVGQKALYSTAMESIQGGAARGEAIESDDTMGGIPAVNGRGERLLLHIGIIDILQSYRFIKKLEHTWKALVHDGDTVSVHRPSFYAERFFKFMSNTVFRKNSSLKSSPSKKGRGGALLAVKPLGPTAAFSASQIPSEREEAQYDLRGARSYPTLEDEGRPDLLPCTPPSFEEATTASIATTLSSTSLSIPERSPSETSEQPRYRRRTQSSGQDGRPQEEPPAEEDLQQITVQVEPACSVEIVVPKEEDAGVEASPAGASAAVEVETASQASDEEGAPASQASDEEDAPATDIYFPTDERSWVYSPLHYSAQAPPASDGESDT

[4] = target: 5-hydroxytryptamine receptor 1D (Homo sapiens) (UniProt P28221); conditions: Compound concentration 10.0 uM
5-hydroxytryptamine receptor 1D (Homo sapiens), sequence (P28221 whole entry): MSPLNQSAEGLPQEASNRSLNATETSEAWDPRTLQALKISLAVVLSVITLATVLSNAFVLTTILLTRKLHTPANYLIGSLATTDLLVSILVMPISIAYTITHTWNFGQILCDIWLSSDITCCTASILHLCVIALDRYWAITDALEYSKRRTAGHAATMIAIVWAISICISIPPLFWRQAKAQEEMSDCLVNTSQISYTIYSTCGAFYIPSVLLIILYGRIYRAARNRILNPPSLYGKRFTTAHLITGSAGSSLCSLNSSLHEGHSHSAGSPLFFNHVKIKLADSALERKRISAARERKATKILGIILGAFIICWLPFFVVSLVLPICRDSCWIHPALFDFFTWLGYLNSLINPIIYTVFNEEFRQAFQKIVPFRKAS

[5] = system: Receptor-type tyrosine-protein kinase FLT3 (Homo sapiens), P36888 [K663Q]; conditions: Compound concentration 1000.0 nM
[6] = target: T1, Mitogen-activated protein kinase kinase kinase 3 (Homo sapiens) (UniProt Q99759); conditions: Compound concentration 1000.0 nM
T1 sequence (whole entry): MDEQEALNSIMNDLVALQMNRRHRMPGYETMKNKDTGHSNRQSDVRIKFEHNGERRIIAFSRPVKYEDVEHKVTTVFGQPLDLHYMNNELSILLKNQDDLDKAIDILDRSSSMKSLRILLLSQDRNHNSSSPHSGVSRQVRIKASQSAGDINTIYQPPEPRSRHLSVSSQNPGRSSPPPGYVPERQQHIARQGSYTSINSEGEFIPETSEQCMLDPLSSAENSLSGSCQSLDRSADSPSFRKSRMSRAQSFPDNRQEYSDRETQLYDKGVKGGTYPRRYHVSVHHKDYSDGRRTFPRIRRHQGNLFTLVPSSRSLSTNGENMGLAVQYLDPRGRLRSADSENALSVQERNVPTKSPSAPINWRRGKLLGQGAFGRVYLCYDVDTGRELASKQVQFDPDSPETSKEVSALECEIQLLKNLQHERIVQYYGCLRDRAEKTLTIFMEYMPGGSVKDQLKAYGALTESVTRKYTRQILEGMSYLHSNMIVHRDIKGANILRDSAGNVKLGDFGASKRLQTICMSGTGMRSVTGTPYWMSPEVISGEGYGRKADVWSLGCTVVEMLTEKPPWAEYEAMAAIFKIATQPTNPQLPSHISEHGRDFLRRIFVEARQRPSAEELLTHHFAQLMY

[7] = target: T2, Myosin-IIIb (Homo sapiens) (UniProt Q8WXR4); conditions: Compound concentration 1000.0 nM
T2 sequence (whole entry): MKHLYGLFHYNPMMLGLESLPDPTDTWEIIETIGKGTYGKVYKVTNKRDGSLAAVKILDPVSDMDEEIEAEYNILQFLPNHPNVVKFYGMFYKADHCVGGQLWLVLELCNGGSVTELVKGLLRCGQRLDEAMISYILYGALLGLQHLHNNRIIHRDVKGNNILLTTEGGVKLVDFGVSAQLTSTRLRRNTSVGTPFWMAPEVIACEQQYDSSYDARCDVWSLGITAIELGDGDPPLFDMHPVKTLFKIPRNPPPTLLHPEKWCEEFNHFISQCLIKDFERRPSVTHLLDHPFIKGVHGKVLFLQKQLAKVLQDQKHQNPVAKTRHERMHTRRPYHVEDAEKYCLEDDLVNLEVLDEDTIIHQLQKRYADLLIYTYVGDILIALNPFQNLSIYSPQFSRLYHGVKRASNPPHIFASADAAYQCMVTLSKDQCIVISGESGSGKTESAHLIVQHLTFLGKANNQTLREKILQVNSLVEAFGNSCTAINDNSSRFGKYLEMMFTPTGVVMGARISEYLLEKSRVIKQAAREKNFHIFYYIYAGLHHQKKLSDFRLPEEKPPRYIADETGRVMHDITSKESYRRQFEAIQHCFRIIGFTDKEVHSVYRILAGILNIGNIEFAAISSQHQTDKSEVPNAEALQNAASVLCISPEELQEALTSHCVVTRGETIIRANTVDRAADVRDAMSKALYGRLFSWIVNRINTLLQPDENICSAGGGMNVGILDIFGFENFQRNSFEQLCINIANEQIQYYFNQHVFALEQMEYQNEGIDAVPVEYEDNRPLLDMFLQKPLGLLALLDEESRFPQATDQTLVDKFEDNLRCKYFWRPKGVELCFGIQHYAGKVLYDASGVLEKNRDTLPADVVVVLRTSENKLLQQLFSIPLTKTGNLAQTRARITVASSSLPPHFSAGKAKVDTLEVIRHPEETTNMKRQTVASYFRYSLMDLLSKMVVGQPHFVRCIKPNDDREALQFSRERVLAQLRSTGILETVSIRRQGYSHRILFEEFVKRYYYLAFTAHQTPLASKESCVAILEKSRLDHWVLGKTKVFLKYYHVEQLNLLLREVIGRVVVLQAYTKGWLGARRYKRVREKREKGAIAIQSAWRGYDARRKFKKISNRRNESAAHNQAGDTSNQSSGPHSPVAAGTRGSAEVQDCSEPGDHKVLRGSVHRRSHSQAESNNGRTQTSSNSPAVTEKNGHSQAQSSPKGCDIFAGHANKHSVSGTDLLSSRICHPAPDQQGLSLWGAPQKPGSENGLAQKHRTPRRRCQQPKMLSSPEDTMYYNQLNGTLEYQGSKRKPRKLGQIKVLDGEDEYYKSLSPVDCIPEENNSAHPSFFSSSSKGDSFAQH

[8] = target: T3, NUAK family SNF1-like kinase 1 (Homo sapiens) (UniProt O60285); conditions: Compound concentration 1000.0 nM
T3 sequence (whole entry): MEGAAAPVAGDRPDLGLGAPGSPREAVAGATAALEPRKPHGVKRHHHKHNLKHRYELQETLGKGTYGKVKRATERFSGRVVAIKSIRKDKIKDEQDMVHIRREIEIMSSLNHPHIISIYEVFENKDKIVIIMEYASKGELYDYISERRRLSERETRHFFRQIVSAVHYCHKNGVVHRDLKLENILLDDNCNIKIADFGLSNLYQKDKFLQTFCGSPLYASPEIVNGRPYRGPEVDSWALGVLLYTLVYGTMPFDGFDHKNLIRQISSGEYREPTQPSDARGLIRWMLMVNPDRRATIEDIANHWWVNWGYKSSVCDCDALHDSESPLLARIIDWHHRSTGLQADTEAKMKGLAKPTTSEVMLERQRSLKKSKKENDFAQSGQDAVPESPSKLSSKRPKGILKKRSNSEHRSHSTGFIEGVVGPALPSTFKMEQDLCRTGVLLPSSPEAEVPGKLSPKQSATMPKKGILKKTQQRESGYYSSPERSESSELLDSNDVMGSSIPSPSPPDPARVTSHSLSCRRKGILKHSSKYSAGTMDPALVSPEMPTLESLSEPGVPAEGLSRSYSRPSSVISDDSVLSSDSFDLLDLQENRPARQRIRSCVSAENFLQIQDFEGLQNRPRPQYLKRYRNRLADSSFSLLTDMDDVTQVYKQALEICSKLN

[9] = target: Serine/threonine-protein kinase WNK2 (Homo sapiens) (UniProt Q9Y3S1); conditions: Compound concentration 1000.0 nM
Serine/threonine-protein kinase WNK2 (Homo sapiens), sequence (Q9Y3S1 whole entry): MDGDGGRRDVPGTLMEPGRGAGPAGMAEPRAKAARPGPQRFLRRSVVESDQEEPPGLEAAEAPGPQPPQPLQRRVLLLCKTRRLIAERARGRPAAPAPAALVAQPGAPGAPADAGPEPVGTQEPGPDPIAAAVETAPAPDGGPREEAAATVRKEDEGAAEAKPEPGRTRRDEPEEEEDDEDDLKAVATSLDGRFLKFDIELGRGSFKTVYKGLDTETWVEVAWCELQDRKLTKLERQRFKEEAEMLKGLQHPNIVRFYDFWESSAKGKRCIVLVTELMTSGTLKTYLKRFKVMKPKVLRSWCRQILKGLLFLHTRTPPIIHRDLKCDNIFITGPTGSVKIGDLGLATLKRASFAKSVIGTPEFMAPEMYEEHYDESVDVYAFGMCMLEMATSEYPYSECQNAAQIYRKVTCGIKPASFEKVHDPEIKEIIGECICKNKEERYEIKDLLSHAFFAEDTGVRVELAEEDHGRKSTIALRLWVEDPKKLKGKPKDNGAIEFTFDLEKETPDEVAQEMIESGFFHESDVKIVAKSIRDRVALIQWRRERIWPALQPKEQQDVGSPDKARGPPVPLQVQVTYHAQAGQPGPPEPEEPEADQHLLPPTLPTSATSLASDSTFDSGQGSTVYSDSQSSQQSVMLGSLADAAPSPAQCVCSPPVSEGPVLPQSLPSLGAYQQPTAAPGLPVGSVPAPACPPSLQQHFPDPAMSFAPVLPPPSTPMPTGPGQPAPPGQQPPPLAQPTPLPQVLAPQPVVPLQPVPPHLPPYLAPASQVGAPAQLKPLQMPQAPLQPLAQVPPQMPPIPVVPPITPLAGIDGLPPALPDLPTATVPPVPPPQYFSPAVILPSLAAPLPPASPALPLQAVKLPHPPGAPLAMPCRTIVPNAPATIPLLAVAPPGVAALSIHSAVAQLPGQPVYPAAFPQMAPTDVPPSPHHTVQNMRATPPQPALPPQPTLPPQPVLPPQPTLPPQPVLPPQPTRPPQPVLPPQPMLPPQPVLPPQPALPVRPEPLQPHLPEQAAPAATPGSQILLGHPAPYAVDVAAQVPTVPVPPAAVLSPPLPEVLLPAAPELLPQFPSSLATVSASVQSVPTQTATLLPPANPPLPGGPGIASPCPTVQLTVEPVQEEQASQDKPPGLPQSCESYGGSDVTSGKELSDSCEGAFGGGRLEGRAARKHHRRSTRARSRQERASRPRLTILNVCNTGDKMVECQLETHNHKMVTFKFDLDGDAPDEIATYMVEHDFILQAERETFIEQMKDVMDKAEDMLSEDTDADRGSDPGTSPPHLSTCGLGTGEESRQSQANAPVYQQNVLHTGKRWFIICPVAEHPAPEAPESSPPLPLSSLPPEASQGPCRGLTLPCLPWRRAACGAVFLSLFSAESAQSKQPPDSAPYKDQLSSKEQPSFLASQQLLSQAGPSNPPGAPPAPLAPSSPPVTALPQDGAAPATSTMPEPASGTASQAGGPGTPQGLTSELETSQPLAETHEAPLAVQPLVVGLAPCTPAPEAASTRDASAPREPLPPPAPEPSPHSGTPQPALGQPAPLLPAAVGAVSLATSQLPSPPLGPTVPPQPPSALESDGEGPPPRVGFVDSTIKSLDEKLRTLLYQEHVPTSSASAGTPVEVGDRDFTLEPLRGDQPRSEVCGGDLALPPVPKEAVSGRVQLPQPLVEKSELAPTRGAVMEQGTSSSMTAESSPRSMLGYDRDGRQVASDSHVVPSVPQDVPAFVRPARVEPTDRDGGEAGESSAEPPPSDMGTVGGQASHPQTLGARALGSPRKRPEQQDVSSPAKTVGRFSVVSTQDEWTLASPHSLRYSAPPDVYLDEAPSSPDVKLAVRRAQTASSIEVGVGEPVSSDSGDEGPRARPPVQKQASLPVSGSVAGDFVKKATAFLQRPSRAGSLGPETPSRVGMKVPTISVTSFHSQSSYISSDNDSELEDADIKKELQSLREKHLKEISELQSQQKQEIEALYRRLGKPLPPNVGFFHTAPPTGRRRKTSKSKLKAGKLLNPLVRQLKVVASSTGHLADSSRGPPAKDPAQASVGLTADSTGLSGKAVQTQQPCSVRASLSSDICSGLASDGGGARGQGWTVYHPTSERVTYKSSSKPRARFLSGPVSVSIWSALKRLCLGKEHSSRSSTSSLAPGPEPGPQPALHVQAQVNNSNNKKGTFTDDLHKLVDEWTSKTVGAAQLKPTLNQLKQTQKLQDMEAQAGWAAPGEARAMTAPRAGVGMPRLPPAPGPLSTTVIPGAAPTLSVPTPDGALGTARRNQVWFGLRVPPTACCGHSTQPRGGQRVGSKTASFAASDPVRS

Cyclin-dependent kinase 8 (Homo sapiens), sequence (P49336 whole entry): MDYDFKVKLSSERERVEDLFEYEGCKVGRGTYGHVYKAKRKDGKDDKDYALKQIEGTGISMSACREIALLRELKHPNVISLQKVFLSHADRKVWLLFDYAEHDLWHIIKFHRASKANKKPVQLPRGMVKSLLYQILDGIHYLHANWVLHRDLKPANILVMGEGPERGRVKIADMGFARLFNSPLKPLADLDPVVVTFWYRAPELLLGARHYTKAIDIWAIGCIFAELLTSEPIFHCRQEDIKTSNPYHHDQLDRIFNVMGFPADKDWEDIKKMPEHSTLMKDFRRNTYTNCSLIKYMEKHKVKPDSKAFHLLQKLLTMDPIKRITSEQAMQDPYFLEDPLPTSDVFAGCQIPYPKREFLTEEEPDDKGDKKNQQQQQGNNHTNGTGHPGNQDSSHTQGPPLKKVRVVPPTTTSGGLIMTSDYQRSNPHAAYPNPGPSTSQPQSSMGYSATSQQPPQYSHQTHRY
Proto-oncogene tyrosine-protein kinase receptor Ret (Homo sapiens), P07949 [V804M], sequence (P07949 whole entry V804M): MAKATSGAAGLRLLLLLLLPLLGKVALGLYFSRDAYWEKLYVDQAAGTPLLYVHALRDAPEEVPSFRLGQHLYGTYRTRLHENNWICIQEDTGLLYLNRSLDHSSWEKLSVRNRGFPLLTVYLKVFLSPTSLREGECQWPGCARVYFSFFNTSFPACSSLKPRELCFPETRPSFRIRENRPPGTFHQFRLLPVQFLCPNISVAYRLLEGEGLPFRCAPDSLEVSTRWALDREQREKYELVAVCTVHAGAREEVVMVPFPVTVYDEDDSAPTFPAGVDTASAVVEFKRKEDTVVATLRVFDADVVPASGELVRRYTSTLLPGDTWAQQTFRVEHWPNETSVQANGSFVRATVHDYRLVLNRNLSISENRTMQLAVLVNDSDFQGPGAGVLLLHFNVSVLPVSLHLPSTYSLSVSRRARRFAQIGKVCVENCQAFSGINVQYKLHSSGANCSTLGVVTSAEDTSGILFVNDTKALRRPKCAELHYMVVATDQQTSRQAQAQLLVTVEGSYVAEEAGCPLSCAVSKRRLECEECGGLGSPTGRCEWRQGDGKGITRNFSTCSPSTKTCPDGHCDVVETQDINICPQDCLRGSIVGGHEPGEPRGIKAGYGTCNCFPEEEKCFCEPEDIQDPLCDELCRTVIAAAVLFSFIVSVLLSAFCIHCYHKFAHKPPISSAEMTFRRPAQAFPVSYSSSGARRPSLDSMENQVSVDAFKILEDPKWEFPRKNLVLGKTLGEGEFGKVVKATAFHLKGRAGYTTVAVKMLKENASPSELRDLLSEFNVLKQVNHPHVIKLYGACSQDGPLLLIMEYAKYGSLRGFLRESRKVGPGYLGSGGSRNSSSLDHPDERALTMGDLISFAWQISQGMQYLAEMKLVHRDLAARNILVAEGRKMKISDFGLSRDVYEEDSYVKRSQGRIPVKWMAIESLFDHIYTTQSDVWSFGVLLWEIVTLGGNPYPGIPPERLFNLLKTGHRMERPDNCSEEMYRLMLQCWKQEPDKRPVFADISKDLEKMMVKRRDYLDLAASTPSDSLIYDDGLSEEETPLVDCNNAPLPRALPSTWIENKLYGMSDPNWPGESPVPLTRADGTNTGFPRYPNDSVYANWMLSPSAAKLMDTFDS

Cc1nc(C2CCN(C(=O)c3ccc(OC(F)(F)F)cc3N)CC2)c2ncc(N3CCN(C)CC3)cc2n1 [BAY-693]
inactive: residual activity [1] 100% | residual activity [2] 100% | residual activity [3] 94% | inhibition [4] -2.17% | residual activity [5] 100% | residual activity [6] 92% | residual activity [7] 71% | residual activity [8] 95% | residual activity [9] 100%

CN1CCN(c2cnc3c(C4CCN(C(=O)c5ccc(OC(F)(F)F)cc5N)CC4)ncnc3c2)CC1 [BAY-885]
inactive: residual activity [1] 100% | residual activity [2] 100% | residual activity [3] 100% | inhibition [4] 16% | residual activity [5] 100% | residual activity [6] 94% | residual activity [7] 73% | residual activity [8] 100% | residual activity [9] 100%
